# PubChem BioAssay AID256 (DTP/NCI, 2004)
# “And” between values parts separate entries of the source, which are not always exact repeats. Identical values can stand only once. Inconclusive results and toxic doses are left out.
# Tested on: CD2F1 mice, L1210 leukemia ip, survival T/C
# Test: NCI In Vivo Anticancer Drug Screen. Data for tumor model L1210 Leukemia (intraperitoneal) in CD2F1 (CDF1) mice
# Details: higher = longer survival
# Outline: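 In this screen, transplantable tumors were grown in mice given either the compound or its vehicle. Results were expressed as the treated measurement relative to the control measurement.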
smiles,measurement,setting,value
NC(CSC(c1ccccc1)(c1ccccc1)c1ccccc1)C(=O)O (stereo unspecified),T/C,"endpoint: mean survival time, dose: 0.48 mg/kg/injection, schedule: Q03HX024 (oral), vehicle: saline",103 % of control
same,T/C,"endpoint: mean survival time, dose: 0.94 mg/kg/injection, schedule: Q03HX024 (oral), vehicle: saline",105 % of control
same,T/C,"endpoint: mean survival time, dose: 1.88 mg/kg/injection, schedule: Q03HX008 (oral), vehicle: saline",109 % of control
same,T/C,"endpoint: mean survival time, dose: 1.88 mg/kg/injection, schedule: Q03HX024 (oral), vehicle: saline",109 % of control
same,T/C,"endpoint: mean survival time, dose: 3.9 mg/kg/injection, schedule: Q04DX003 (ip), vehicle: water",102 % of control
same,T/C,"endpoint: mean survival time, dose: 5.0 mg/kg/injection, schedule: Q03HX024 (ip), vehicle: water",122 % of control and 106 % of control
same,T/C,"endpoint: mean survival time, dose: 5.9 mg/kg/injection, schedule: Q04DX003 (ip), vehicle: water",102 % of control
same,T/C,"endpoint: mean survival time, dose: 6.25 mg/kg/injection, schedule: Q01DX009 (sc), vehicle: saline",101 % of control
same,T/C,"endpoint: mean survival time, dose: 8.8 mg/kg/injection, schedule: Q04DX003 (ip), vehicle: water",103 % of control
same,T/C,"endpoint: mean survival time, dose: 10.0 mg/kg/injection, schedule: Q01DX009 (ip), vehicle: water",112 % of control
same,T/C,"endpoint: mean survival time, dose: 10.0 mg/kg/injection, schedule: Q03HX008 (ip), vehicle: water",120 % of control
same,T/C,"endpoint: mean survival time, dose: 10.0 mg/kg/injection, schedule: Q03HX016 (ip), vehicle: water",114 % of control
same,T/C,"endpoint: mean survival time, dose: 10.0 mg/kg/injection, schedule: Q03HX024 (ip), vehicle: clinical formulation",103 % of control
same,T/C,"endpoint: mean survival time, dose: 10.0 mg/kg/injection, schedule: Q03HX024 (ip), vehicle: saline",112 % of control
same,T/C,"endpoint: mean survival time, dose: 10.0 mg/kg/injection, schedule: Q03HX024 (ip), vehicle: water",151 % of control
same,T/C,"endpoint: mean survival time, dose: 12.5 mg/kg/injection, schedule: Q01DX009 (sc), vehicle: saline",107 % of control
same,T/C,"endpoint: mean survival time, dose: 13.2 mg/kg/injection, schedule: Q04DX003 (ip), vehicle: water",123 % of control
same,T/C,"endpoint: mean survival time, dose: 15.0 mg/kg/injection, schedule: Q01DX005 (oral), vehicle: saline",98 % of control
same,T/C,"endpoint: mean survival time, dose: 15.0 mg/kg/injection, schedule: Q01DX009 (oral), vehicle: saline",116 % of control
same,T/C,"endpoint: mean survival time, dose: 15.0 mg/kg/injection, schedule: Q03HX008 (oral), vehicle: saline",155 % of control
same,T/C,"endpoint: mean survival time, dose: 15.0 mg/kg/injection, schedule: Q03HX024 (oral), vehicle: saline",115 % of control
same,T/C,"endpoint: mean survival time, dose: 20.0 mg/kg/injection, schedule: Q01DX009 (sc), vehicle: water",123 % of control
same,T/C,"endpoint: mean survival time, dose: 20.0 mg/kg/injection, schedule: Q03HX008 (ip), vehicle: water",123 % of control
same,T/C,"endpoint: mean survival time, dose: 20.0 mg/kg/injection, schedule: Q03HX024 (ip), vehicle: clinical formulation",108 % of control
same,T/C,"endpoint: mean survival time, dose: 20.0 mg/kg/injection, schedule: Q03HX024 (ip), vehicle: saline",116 % of control
same,T/C,"endpoint: mean survival time, dose: 20.0 mg/kg/injection, schedule: Q04DX003 (ip), vehicle: water",123 % of control
same,T/C,"endpoint: mean survival time, dose: 30.0 mg/kg/injection, schedule: Q01DX005 (oral), vehicle: saline",100 % of control
same,T/C,"endpoint: mean survival time, dose: 30.0 mg/kg/injection, schedule: Q01DX009 (oral), vehicle: saline",106 % of control
same,T/C,"endpoint: mean survival time, dose: 30.0 mg/kg/injection, schedule: Q04DX003 (oral), vehicle: saline",101 % of control
same,T/C,"endpoint: mean survival time, dose: 40.0 mg/kg/injection, schedule: Q03HX024 (ip), vehicle: clinical formulation",121 % of control
same,T/C,"endpoint: mean survival time, dose: 40.0 mg/kg/injection, schedule: Q03HX024 (ip), vehicle: water",92 % of control
same,T/C,"endpoint: mean survival time, dose: 45.0 mg/kg/injection, schedule: Q04DX003 (ip), vehicle: water",114 % of control
same,T/C,"endpoint: mean survival time, dose: 50.0 mg/kg/injection, schedule: Q01DX001 (sc), vehicle: saline",120 % of control
same,T/C,"endpoint: mean survival time, dose: 60.0 mg/kg/injection, schedule: Q01DX005 (oral), vehicle: saline",111 % of control
same,T/C,"endpoint: mean survival time, dose: 60.0 mg/kg/injection, schedule: Q04DX003 (oral), vehicle: saline",106 % of control
same,T/C,"endpoint: mean survival time, dose: 80.0 mg/kg/injection, schedule: Q01DX001 (ip), vehicle: water",104 % of control
same,T/C,"endpoint: mean survival time, dose: 80.0 mg/kg/injection, schedule: Q01DX009 (oral), vehicle: water",157 % of control
same,T/C,"endpoint: mean survival time, dose: 80.0 mg/kg/injection, schedule: Q03HX024 (ip), vehicle: clinical formulation",150 % of control
same,T/C,"endpoint: mean survival time, dose: 80.0 mg/kg/injection, schedule: Q03HX024 (ip), vehicle: saline",154 % of control
same,T/C,"endpoint: mean survival time, dose: 80.0 mg/kg/injection, schedule: Q04DX003 (ip), vehicle: water",121 % of control
same,T/C,"endpoint: mean survival time, dose: 80.0 mg/kg/injection, schedule: Q08DX002 (ip), vehicle: saline",102 % of control
same,T/C,"endpoint: mean survival time, dose: 100.0 mg/kg/injection, schedule: Q01DX001 (sc), vehicle: saline",115 % of control
same,T/C,"endpoint: mean survival time, dose: 120.0 mg/kg/injection, schedule: Q01DX001 (oral), vehicle: saline",102 % of control
same,T/C,"endpoint: mean survival time, dose: 120.0 mg/kg/injection, schedule: Q01DX005 (oral), vehicle: saline",123 % of control
same,T/C,"endpoint: mean survival time, dose: 120.0 mg/kg/injection, schedule: Q04DX003 (oral), vehicle: saline",108 % of control
same,T/C,"endpoint: mean survival time, dose: 160.0 mg/kg/injection, schedule: Q01DX001 (oral), vehicle: water",115 % of control
same,T/C,"endpoint: mean survival time, dose: 160.0 mg/kg/injection, schedule: Q03HX024 (ip), vehicle: clinical formulation",152 % of control
same,T/C,"endpoint: mean survival time, dose: 160.0 mg/kg/injection, schedule: Q03HX024 (ip), vehicle: saline",234 % of control
same,T/C,"endpoint: mean survival time, dose: 200.0 mg/kg/injection, schedule: Q01DX009 (sc), vehicle: saline",86 % of control
same,T/C,"endpoint: mean survival time, dose: 240.0 mg/kg/injection, schedule: Q01DX001 (oral), vehicle: saline",107 % of control
same,T/C,"endpoint: mean survival time, dose: 240.0 mg/kg/injection, schedule: Q01DX009 (oral), vehicle: saline",103 % of control
same,T/C,"endpoint: mean survival time, dose: 240.0 mg/kg/injection, schedule: Q04DX003 (oral), vehicle: saline",111 % of control
same,T/C,"endpoint: mean survival time, dose: 320.0 mg/kg/injection, schedule: Q03HX024 (ip), vehicle: saline",86 % of control
same,T/C,"endpoint: mean survival time, dose: 400.0 mg/kg/injection, schedule: Q01DX001 (sc), vehicle: saline",108 % of control
same,T/C,"endpoint: mean survival time, dose: 480.0 mg/kg/injection, schedule: Q01DX001 (oral), vehicle: saline",107 % of control
same,T/C,"endpoint: mean survival time, dose: 480.0 mg/kg/injection, schedule: Q01DX005 (oral), vehicle: saline",97 % of control
same,T/C,"endpoint: mean survival time, dose: 480.0 mg/kg/injection, schedule: Q01DX009 (oral), vehicle: saline",96 % of control
same,T/C,"endpoint: mean survival time, dose: 640.0 mg/kg/injection, schedule: Q01DX001 (oral), vehicle: water",108 % of control
same,T/C,"endpoint: mean survival time, dose: 640.0 mg/kg/injection, schedule: Q01DX001 (sc), vehicle: water",180 % of control
same,T/C,"endpoint: mean survival time, dose: 800.0 mg/kg/injection, schedule: Q01DX001 (sc), vehicle: saline",106 % of control
same,T/C,"endpoint: mean survival time, dose: 960.0 mg/kg/injection, schedule: Q04DX003 (oral), vehicle: saline",150 % of control
same,T/C,"endpoint: median survival time, dose: 3.9 mg/kg/injection, schedule: Q01DX009 (ip), vehicle: clinical formulation",91 % of control
same,T/C,"endpoint: median survival time, dose: 5.0 mg/kg/injection, schedule: Q03HX024 (ip), vehicle: water",111 % of control
same,T/C,"endpoint: median survival time, dose: 7.8 mg/kg/injection, schedule: Q01DX009 (ip), vehicle: clinical formulation",94 % of control
same,T/C,"endpoint: median survival time, dose: 10.0 mg/kg/injection, schedule: Q01DX009 (ip), vehicle: water",88 % of control
same,T/C,"endpoint: median survival time, dose: 10.0 mg/kg/injection, schedule: Q03HX024 (ip), vehicle: water",122 % of control
same,T/C,"endpoint: median survival time, dose: 10.0 mg/kg/injection, schedule: Q04DX003 (ip), vehicle: water",111 % of control
same,T/C,"endpoint: median survival time, dose: 15.6 mg/kg/injection, schedule: Q01DX009 (ip), vehicle: clinical formulation",121 % of control
same,T/C,"endpoint: median survival time, dose: 20.0 mg/kg/injection, schedule: Q01DX009 (oral), vehicle: water",111 % of control
same,T/C,"endpoint: median survival time, dose: 20.0 mg/kg/injection, schedule: Q03HX024 (ip), vehicle: water",150 % of control
same,T/C,"endpoint: median survival time, dose: 20.0 mg/kg/injection, schedule: Q04DX003 (ip), vehicle: water",88 % of control
same,T/C,"endpoint: median survival time, dose: 31.3 mg/kg/injection, schedule: Q01DX009 (ip), vehicle: clinical formulation",118 % of control
same,T/C,"endpoint: median survival time, dose: 31.3 mg/kg/injection, schedule: Q01DX009 (oral), vehicle: clinical formulation",121 % of control
same,T/C,"endpoint: median survival time, dose: 31.3 mg/kg/injection, schedule: Q03HX008 (oral), vehicle: clinical formulation",121 % of control
same,T/C,"endpoint: median survival time, dose: 31.3 mg/kg/injection, schedule: Q03HX024 (oral), vehicle: clinical formulation",88 % of control
same,T/C,"endpoint: median survival time, dose: 40.0 mg/kg/injection, schedule: Q01DX009 (ip), vehicle: water",88 % of control
same,T/C,"endpoint: median survival time, dose: 40.0 mg/kg/injection, schedule: Q01DX009 (oral), vehicle: water",111 % of control
same,T/C,"endpoint: median survival time, dose: 40.0 mg/kg/injection, schedule: Q04DX003 (ip), vehicle: water",88 % of control
same,T/C,"endpoint: median survival time, dose: 62.5 mg/kg/injection, schedule: Q03HX008 (oral), vehicle: clinical formulation",164 % of control
same,T/C,"endpoint: median survival time, dose: 62.5 mg/kg/injection, schedule: Q03HX016 (oral), vehicle: clinical formulation",90 % of control
same,T/C,"endpoint: median survival time, dose: 80.0 mg/kg/injection, schedule: Q04DX003 (ip), vehicle: water",105 % of control
same,T/C,"endpoint: median survival time, dose: 125.0 mg/kg/injection, schedule: Q01DX009 (oral), vehicle: clinical formulation",114 % of control
same,T/C,"endpoint: median survival time, dose: 125.0 mg/kg/injection, schedule: Q03HX016 (oral), vehicle: clinical formulation",90 % of control
same,T/C,"endpoint: median survival time, dose: 125.0 mg/kg/injection, schedule: Q04DX003 (oral), vehicle: clinical formulation",151 % of control
same,T/C,"endpoint: median survival time, dose: 160.0 mg/kg/injection, schedule: Q01DX009 (oral), vehicle: water",116 % of control
same,T/C,"endpoint: median survival time, dose: 250.0 mg/kg/injection, schedule: Q01DX001 (oral), vehicle: clinical formulation",119 % of control
same,T/C,"endpoint: median survival time, dose: 250.0 mg/kg/injection, schedule: Q04DX003 (oral), vehicle: clinical formulation",184 % of control
same,T/C,"endpoint: median survival time, dose: 250.0 mg/kg/injection, schedule: Q08DX002 (oral), vehicle: clinical formulation",151 % of control
same,T/C,"endpoint: median survival time, dose: 500.0 mg/kg/injection, schedule: Q01DX001 (oral), vehicle: clinical formulation",98 % of control
same,T/C,"endpoint: median survival time, dose: 500.0 mg/kg/injection, schedule: Q04DX003 (oral), vehicle: clinical formulation",98 % of control
same,T/C,"endpoint: median survival time, dose: 500.0 mg/kg/injection, schedule: Q08DX002 (oral), vehicle: clinical formulation",191 % of control
